Source: PubChem BioAssay AID1919003 (Molecular Pharmacology Branch, DTP, NCI, 2023)

Tested on: 786-0 complex spheroids with HUVEC/MSC, growth % test/control
Experiment: Anticancer human tumor 786-0 cell line growth inhibition [AhR];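 note: compound exposure lasted seven days before the read-out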
Details: for IC50: curve of first compound; for viability, T/C: stronger effect = lower value
Excerpt: Multicellular complex tumor spheroid response to aryl hydrocarbon receptor antagonists in combination with a variety of drugs and investigational agents in selected tumor cell lines
The current study was undertaken to assess response to aryl hydrocarbon receptor antagonists in combination with standard-of-care drugs and investigational agents in solid tumor complex spheroid models. Complex spheroids include a stromal component modeled by human endothelial cells (HUVEC) and fibroblasts modeled by human mesenchymal stem cells (MSCs). The concentration ranges selected for each drug and investigational agent were based upon clinically achievable concentrations if the clinical Cmax of the agent was known.
Compounds. The drugs and investigational agents: BAY 2416964 (NSC825713), GNF351 (NSC835774), CH-223191 (NSC835775), CPI-455 (NSC825282), aza-TdCyd (NSC777586), decitabine (NSC127716), belinostat (NSC758774), entinostat (NSC756642), pevonedistat (NSC761192), tazemetostat (NSC777109), talazoparib (NSC765396), olaparib (NSC753686), selinexor (NSC780203), nedisertib (M3814, NSC802822), bortezomib (NSC756655), venetoclax (NSC766270), doxorubicin (NSC123127), elimusertib (BAY189344, NSC800525), ceralasertib (AZD6738, NSC777638), TAK-243 (NSC785004), alisertib (NSC759677), etoposide (NSC141540), topotecan (NSC609699), eribulin (NSC707389), gemcitabine (NSC613327), carboplatin (NSC241240), cisplatin (NSC119875), and SN-38 (NSC673596) were obtained from the National Cancer Institute (NCI) Developmental Therapeutics Program Chemical Repository (32). The FDA-approved anticancer drug set is available from the Developmental Therapeutics Program at https://dtp.cancer.gov/organization/dscb/obtaining/available plates.htm. […] The stock solutions were prepared in dimethyl sulfoxide (DMSO, Sigma-Aldrich, St. Louis, MO, cat. D2650), except for the platinum compounds which were prepared in saline (Quality Biological, Gaithersburg, MD, cat. 114-055-101), at 800-fold the tested concentration and stored at -70 degrees C prior to their use. All drugs and investigational agents were tested over a range starting from a high concentration at or near the clinical Cmax and decreasing in half-log increments. If the clinical Cmax for an agent had not been determined, the highest concentration tested was 10 microM (Table 1).
Cell Culture. All cells were maintained in an incubator at 37 degrees C and 5% CO2 with 95% humidity. The PDC lines were cultured according to standard operating procedures established by the NCI PDMR (https://pdmr.cancer.gov). Briefly, all PDCs were thawed and cultured in Matrigel-coated flasks prepared with a working solution of 1X Ham's F-12 nutrient mix, without supplementation (Invitrogen, Waltham, MA, cat. 11765054), 100 U/mL penicillin-streptomycin (Invitrogen, cat. 15140122), and 2.5% Matrigel (Corning Inc., Corning, NY, cat. 354248) for the first three passages. All PDCs were cultured in complete DMEM/F-12 media containing advanced DMEM/F-12 (Invitrogen, cat. 12634028), 4.9% defined fetal bovine serum, heat inactivated (HyClone Laboratories Inc., Logan, UT, cat. SH30070.03HI), 389 ng/mL hydrocortisone (Sigma-Aldrich, cat. H4001), 9.7 ng/mL human EGF recombinant protein (Invitrogen, cat. PHG0313), 23.4 microg/mL adenine (Sigma-Aldrich, cat. A2786), 97.3 U/mL penicillin-streptomycin (Invitrogen, cat. 15140122), 1.9 mM L-glutamine (Invitrogen, cat. 25030081), and 9.7 microM Y-27632 dihydrochloride (Tocris Bioscience, Bristol, United Kingdom, cat. 1254). The PDCs were cultured in complete DMEM/F12 media without 10 microM Y-27632 dihydrochloride for at least two passages prior to the screen. The established cell lines NCI-H1341 and […] were cultured in DMEM/F-12, HEPES (Invitrogen, cat. 11330032), 5% defined fetal bovine serum (HyClone Laboratories Inc., cat. SH30070.03), ITS premix universal culture supplement [insulin (5 microg/mL), transferrin (5 microg/mL), and selenious acid (5 ng/mL)] […]

## CCc1c2c(nc3ccc(O)cc13)-c1cc3c(c(=O)n1C2)COC(=O)[C@]3(O)CC + CC(CO)NC(=O)c1cc(-c2ccc(Cl)cc2)nn(-c2cnn(C)c2)c1=O
Second compound 0.1 µM
  IC50: 5.22 nM
Second compound 0.316 µM
  IC50: 4.94 nM
Second compound 1 µM
  IC50: 4.22 nM
Second compound 3.16 µM
  IC50: 3.06 nM
Second compound 10 µM
  IC50: 2.22 nM
Second compound 0.1 µM, first compound 0.000949 µM
  viability, T/C: 98.5%
Second compound 0.1 µM, first compound 0.003 µM
  viability, T/C: 82.1%
Second compound 0.1 µM, first compound 0.00949 µM
  viability, T/C: 15.3%
Second compound 0.1 µM, first compound 0.03 µM
  viability, T/C: 5.93%
Second compound 0.1 µM, first compound 0.0949 µM
  viability, T/C: 2.72%
Second compound 0.1 µM, first compound 0.3 µM
  viability, T/C: 2.09%
Second compound 0.316 µM, first compound 0.000949 µM
  viability, T/C: 88%
Second compound 0.316 µM, first compound 0.003 µM
  viability, T/C: 75.5%
Second compound 0.316 µM, first compound 0.00949 µM
  viability, T/C: 16.6%
Second compound 0.316 µM, first compound 0.03 µM
  viability, T/C: 5.34%
Second compound 0.316 µM, first compound 0.0949 µM
  viability, T/C: 3.26%
Second compound 0.316 µM, first compound 0.3 µM
  viability, T/C: 2.5%
Second compound 1 µM, first compound 0.000949 µM
  viability, T/C: 96.8%
Second compound 1 µM, first compound 0.003 µM
  viability, T/C: 65%
Second compound 1 µM, first compound 0.00949 µM
  viability, T/C: 14.1%
Second compound 1 µM, first compound 0.03 µM
  viability, T/C: 6.51%
Second compound 1 µM, first compound 0.0949 µM
  viability, T/C: 3.19%
Second compound 1 µM, first compound 0.3 µM
  viability, T/C: 2.39%
Second compound 3.16 µM, first compound 0.000949 µM
  viability, T/C: 81.5%
Second compound 3.16 µM, first compound 0.003 µM
  viability, T/C: 50.7%
Second compound 3.16 µM, first compound 0.00949 µM
  viability, T/C: 14.6%
Second compound 3.16 µM, first compound 0.03 µM
  viability, T/C: 5.63%
Second compound 3.16 µM, first compound 0.0949 µM
  viability, T/C: 2.91%
Second compound 3.16 µM, first compound 0.3 µM
  viability, T/C: 2.49%
Second compound 10 µM, first compound 0.000949 µM
  viability, T/C: 81.4%
Second compound 10 µM, first compound 0.003 µM
  viability, T/C: 39%
Second compound 10 µM, first compound 0.00949 µM
  viability, T/C: 14%
Second compound 10 µM, first compound 0.03 µM
  viability, T/C: 6.45%
Second compound 10 µM, first compound 0.0949 µM
  viability, T/C: 3.27%
Second compound 10 µM, first compound 0.3 µM
  viability, T/C: 2.66%

## O=C(c1cc(Cc2n[nH]c(=O)c3ccccc23)ccc1F)N1CCN(C(=O)C2CC2)CC1 + CC(CO)NC(=O)c1cc(-c2ccc(Cl)cc2)nn(-c2cnn(C)c2)c1=O
Second compound 0.1 µM
  IC50: > 10000 nM
Second compound 0.316 µM
  IC50: > 10000 nM
Second compound 1 µM
  IC50: > 10000 nM
Second compound 3.16 µM
  IC50: > 10000 nM
Second compound 10 µM
  IC50: > 10000 nM
Second compound 0.1 µM, first compound 0.0316 µM
  viability, T/C: 96.1%
Second compound 0.1 µM, first compound 0.1 µM
  viability, T/C: 101%
Second compound 0.1 µM, first compound 0.316 µM
  viability, T/C: 98.8%
Second compound 0.1 µM, first compound 1 µM
  viability, T/C: 102%
Second compound 0.1 µM, first compound 3.16 µM
  viability, T/C: 102%
Second compound 0.1 µM, first compound 10 µM
  viability, T/C: 91.5%
Second compound 0.316 µM, first compound 0.0316 µM
  viability, T/C: 100%
Second compound 0.316 µM, first compound 0.1 µM
  viability, T/C: 102%
Second compound 0.316 µM, first compound 0.316 µM
  viability, T/C: 97.9%
Second compound 0.316 µM, first compound 1 µM
  viability, T/C: 101%
Second compound 0.316 µM, first compound 3.16 µM
  viability, T/C: 98.8%
Second compound 0.316 µM, first compound 10 µM
  viability, T/C: 98.9%
Second compound 1 µM, first compound 0.0316 µM
  viability, T/C: 98.7%
Second compound 1 µM, first compound 0.1 µM
  viability, T/C: 102%
Second compound 1 µM, first compound 0.316 µM
  viability, T/C: 99.9%
Second compound 1 µM, first compound 1 µM
  viability, T/C: 103%
Second compound 1 µM, first compound 3.16 µM
  viability, T/C: 101%
Second compound 1 µM, first compound 10 µM
  viability, T/C: 99%
Second compound 3.16 µM, first compound 0.0316 µM
  viability, T/C: 97.3%
Second compound 3.16 µM, first compound 0.1 µM
  viability, T/C: 109%
Second compound 3.16 µM, first compound 0.316 µM
  viability, T/C: 95.3%
Second compound 3.16 µM, first compound 1 µM
  viability, T/C: 104%
Second compound 3.16 µM, first compound 3.16 µM
  viability, T/C: 99.8%
Second compound 3.16 µM, first compound 10 µM
  viability, T/C: 89.9%
Second compound 10 µM, first compound 0.0316 µM
  viability, T/C: 113%
Second compound 10 µM, first compound 0.1 µM
  viability, T/C: 107%
Second compound 10 µM, first compound 0.316 µM
  viability, T/C: 108%
Second compound 10 µM, first compound 1 µM
  viability, T/C: 114%
Second compound 10 µM, first compound 3.16 µM
  viability, T/C: 107%
Second compound 10 µM, first compound 10 µM
  viability, T/C: 90.9%
